Measured values: patent publication US7648993B2, “Methods of treating disorders with Group I mGluR antagonists” (Brown University, priority 2001, dated 2010)

Key:
[1] = test system: hippocampal area CA1 slices; test: Sharp electrode EPSP and whole cell voltage-clamp EPSC recordings in hippocampal slices; type: cell-based, Long Evans rats; settings: DHPG 50 μM, 5 min
Procedure: (§1) All animals were used in accordance with procedures approved by the Brown University Institutional Animal Care and Use Committee. Hippocampal slices were prepared from postnatal day 21-30 (P21-30) Long Evans rats (Charles River, Cambridge, Mass.) and mGluR5 knockout mice (Lu et al. 1997) as described previously (Huber et al. 2000). For most experiments, CA3 was removed immediately after sectioning. Slices recovered for 1-2 h at room temperature (rats) or at 30° C. (mice) in artificial cerebrospinal fluid (ACSF) containing (in mM) 124 NaCl, 5 KCl, 1.25 NaH2PO4, 26 NaHCO3, 1 MgCl2, 2 CaCl2, and 10 dextrose, saturated with 95% O2-5% CO2. For recording, slices were placed in a submersion recording chamber and perfused with 30° C. ACSF at a rate of 2 ml/min.
Synaptically evoked field potentials (FPs) were recorded from area CA1 as described previously. […]
The group data were analyzed as follows: 1) the initial slopes of the FPs and excitatory postsynaptic potentials (EPSPs), or the amplitude of the excitatory postsynaptic currents (EPSCs), for each experiment were expressed as percentages of the preconditioning or DHPG baseline average, 2) the time scale in each experiment was converted to time from the onset of conditioning or DHPG, and 3) the time-matched, normalized data were averaged across experiments and expressed in the text and figures as the means ±SE. […]

[2] = test system: hippocampal slices from mGluR5 knockout mice; test: DHPG-LTD of field potentials in hippocampal slices from mGluR5 knockout mice and wild-type littermates; type: cell-based
Procedure: as §1
Baseline responses were collected every 10-30 s using a stimulation intensity (10-30 μA; 0.2 ms) yielding 50-60% of the maximal response. Experiments in which there was a>5% drift in the response magnitude during the 20-min baseline period before DHPG or LFS were excluded from further analysis. All experiments with mGluR5 KO mice used wildtype littermates as controls and were performed blind to the genotype, later determined by Therion (Troy, N.Y.). LFS consisted of 900 pulses at 1 Hz. PP-LFS consisted of 900 pairs of stimuli (50-ms interstimulus interval) delivered at 1 Hz. […]
The group data were analyzed as follows: 1) the initial slopes of the FPs and excitatory postsynaptic potentials (EPSPs), or the amplitude of the excitatory postsynaptic currents (EPSCs), for each experiment were expressed as percentages of the preconditioning or DHPG baseline average, 2) the time scale in each experiment was converted to time from the onset of conditioning or DHPG, and 3) the time-matched, normalized data were averaged across experiments and expressed in the text and figures as the means ±SE. Significant differences between groups were determined using an independent t-test or ANOVA performed on a 5-min average taken 1 h after LFS or DHPG application.

[3] = test system: cultured hippocampal neurons; test: Acid strip immunocytochemistry for internalized GluR1 (AMPARs); type: cell-based, rat
[4] = test system: CA1 neurons in hippocampal slices; test: Synaptically evoked NMDAR-mediated EPSCs in CA1 neurons of hippocampal slices; type: cell-based, Long Evans rats; settings: 5 min, 30 minutes after treatment, +40 mV
Procedure: The loss of synaptic NR1 clusters clearly distinguishes the effect of DHPG from other treatments that selectively affect AMPARs^2,17-19.
Hippocampal slices were prepared from P21-30 Long Evans rats (Charles River, Cambridge, Mass.) as described previously^13,14. Slices recovered for 1-2 h at room temperature in artificial cerebrospinal fluid (ACSF) containing 124 mM NaCl, 5 mM KCl, 1.25 mM NaH2PO4, 26 mM NaHCO3, 1 mM MgCl2, 2 mM CaCl2, 10 mM dextrose, saturated with 95% O2, 5% CO2. For recording, slices were placed in a submersion recording chamber and perfused with 30° C. ACSF at a rate of 2 ml/min.
Synaptically evoked-NMDAR-mediated EPSCs were recorded from area CA1 as described previously for visual cortex^20. NMDA-evoked currents were examined by picospritzing 1 mM NMDA (made in ACSF), applied for 3.5-12.5 ms, near the proximal portion of the primary apical dendrite. NMDA-evoked currents were elicited once every two minutes. Stimulation intensity or picospritz pulse duration/pressure were adjusted to evoke an inward current with amplitude of 50 pA or greater.

[5] = test system: hippocampal slices from Fmr1-KO mice and wildtype littermates; test: DHPG-induced mGluR-LTD of field potentials in hippocampal slices of Fmr1-KO and WT mice; type: cell-based, C57BL/6 congenic mice
Procedure: ACSF at a rate of 2 ml/min.
Fresh stocks were made once a week.

[6] = DHPG 100 μM, 5 min, in APV, 60 min after DHPG

SMILES: NC(C(=O)O)c1cc(O)cc(O)c1 (racemic) [DHPG, (RS)-3,5-dihydroxyphenylglycine]
- EPSP slope after DHPG (LTD), % of baseline ([1]; sharp electrode recording): 61±5%
- EPSC amplitude after DHPG (LTD), % of baseline ([1]; whole cell voltage clamp at −70 mV): 69±5%
- DHPG-LTD, FP % of baseline, mGluR5 heterozygous mutants ([2]; 1 h after DHPG, mGluR5 +/−): 84±4%
- DHPG-LTD, FP % of baseline, wild-type littermate controls ([2]; 1 h after DHPG, wild type): 77±2%
- DHPG-LTD, FP % of baseline, mGluR5 homozygous mutants ([2]; measured 1 h after DHPG application, mGluR5 −/−): 98±3%
- internalized GluR1 puncta ([3]; DHPG 50 μM, 5 min, 15 minutes after treatment onset): 1.44±0.17 puncta per 10 μm of dendrite
- internalized GluR1 puncta ([3]; DHPG 50 μM, 5 min, 1 hour): 1.14±0.15 puncta per 10 μm of dendrite
- internalized GluR1 puncta, APV experiment ([3]; DHPG 50 μM, 5 min, APV 50 μM): 1.49±0.22 puncta per 10 μm of dendrite
- internalized GluR1 puncta, LY344545 experiment ([3]; DHPG 50 μM, 5 min, LY344545 100 μM): 1.39±0.34 puncta per 10 μm of dendrite
- internalized GluR1 puncta, cycloheximide experiment ([3]; measured at 60 minutes, chx 60 μM applied 15 min before DHPG): 1.5±0.27 puncta per 10 μm of dendrite
- NMDAR-EPSC amplitude as percent of baseline ([4]; DHPG 50 μM): 70.7±2.9% of baseline
- NMDAR-EPSC amplitude as percent of baseline ([4]; DHPG 100 μM): 57.7±1.0% of baseline
- FP slope, % of pre-DHPG baseline, Fmr1-KO mice [5, 6]: 77±3%
- FP slope, % of pre-DHPG baseline, WT mice [5, 6]: 88±4%
- maximal acute depression, % of pre-DHPG baseline values, KO ([5]; DHPG, Fmr1-KO slices): 26±5%
- maximal acute depression, % of pre-DHPG baseline values, WT ([5]; DHPG, WT slices): 36±4%
